What is called IC50 is the concentration that inhibits the measured activity by half.

This test deals with SARS-CoV-2 M^PRO (Severe acute respiratory syndrome coronavirus 2, UniProt P0DTD1). Put plainly: biochemical. It counts as biochemical. Particulars: In vitro potency data; 30 min pre-incubation, 25 nM M^pro, 25 µM substrate; read-out: IC50.
As to `O=C(NC1CCC(F)(F)CC1)[C@@H](c1cncnc1)N(C(=O)[C@H](F)Cl)c1ccc(-c2ccno2)cc1` (single isomer, unassigned) [INSCoV-614A(2B), 2-Chloro-N-(2-((4,4-difluorocyclohexyl)amino)-2-oxo-1-(pyrimidin-5-yl)ethyl)-2-fluoro-N-(4-(isoxazol-5-yl)phenyl)acetamide], the IC50 stood at 9110 nM.

For `C=CS(=O)(=O)N(c1ccc(C(C)(C)C)cc1)[C@@H](C(=O)NC1CCCCC1)c1cccnc1` [INSCoV-110-1], the IC50 is 36000 nM.

Turning to `CC(C)(C)c1ccc(N(C(=O)CCl)C(C(=O)NC2CCCCC2)c2cccnc2)cc1` (stereo not drawn) [INSCoV-110A, 2-(4-tert-butyl-N-(2-chloroacetyl)anilino)-N-cyclohexyl-2-(3-pyridyl)acetamide], the 50% inhibitory concentration (IC50) was 1140 nM.

For the molecule `CC(C)(C)c1ccc(N(C(=O)C=O)C(C(=O)NC2CCCCC2)c2cccnc2)cc1` (stereo not drawn) [INSCoV-110D], the IC50 was over 50000 nM.

For the molecule `O=C(NC1CCCCC1)C(c1cncnc1)N(C(=O)CCl)c1ccc(-c2cnco2)cc1` (stereo not drawn) [INSCoV-501A, 2-Chloro-N-(2-(Cyclohexylamino)-2-oxo-1-(Pyrimidin-5-yl)Ethyl)-N-(4-(Oxazol-5-yl)Phenyl)Acetamide], the IC50 came to 290 nM.

`O=C(NC1CCS(=O)(=O)CC1)C(c1cncnc1)N(C(=O)CCl)c1ccc(-c2cnco2)cc1` (stereo not drawn) [INSCoV-501B, 2-Chloro-N-(2-((1,1-Dioxidotetrahydro-2H-Thiopyran-4-yl)Amino)-2-Oxo-1-(Pyrimidin-5-yl)Ethyl)-N-(4-(Oxazol-5-yl)Phenyl)Acetamide]: the IC50 was determined as 600 nM.

Turning to `Cc1ccc(S(=O)(=O)CNC(=O)C(c2cncnc2)N(C(=O)CCl)c2ccc(-c3cnco3)cc2)cc1` (stereo not drawn) [INSCoV-501D], the 50% inhibitory concentration (IC50) is 2510 nM.

On to `O=C(NCCc1ccccc1)C(c1cncnc1)N(C(=O)CCl)c1ccc(-c2cnco2)cc1` (stereo not drawn) [INSCoV-501E], for which the concentration for half-maximal inhibition (IC50) was 600 nM.

As for `Cc1cc(-c2cnco2)ccc1N(C(=O)CCl)C(C(=O)NC1CCCCC1)c1cncnc1` (stereo not drawn) [INSCoV-501G], the IC50 came to 260 nM.

As for `CCS(=O)(=O)N1CCC(NC(=O)C(c2cncnc2)N(C(=O)CCl)c2ccc(-c3cnco3)cc2)CC1` (stereo not drawn) [INSCoV-501H(1)], the IC50 came to 630 nM.

`O=C(NC1CCN(S(=O)(=O)C2CC2)CC1)C(c1cncnc1)N(C(=O)CCl)c1ccc(-c2cnco2)cc1` (stereo not drawn) [INSCoV-501H]: the IC50 stood at 720 nM.

For the molecule `O=C(NC1CCC(F)(F)CC1)C(c1cncnc1)N(C(=O)CCl)c1ccc(-c2cnco2)cc1` (stereo not drawn) [INSCoV-501I, 2-Chloro-N-(2-((4,4-difluorocyclohexyl)amino)-2-oxo-1-(pyrimidin-5-yl)ethyl)-N-(4-(oxazol-5-yl)phenyl)acetamide], the IC50 turned out to be 390 nM.

On to `O=C(NC1CCCCC1)C(c1cnccn1)N(C(=O)CCl)c1ccc(-c2cnco2)cc1` (stereo not drawn) [INSCoV-501L], for which the IC50 amounted to 400 nM.

For the molecule `O=C(NC1CCS(=O)(=O)CC1)C(c1cnccn1)N(C(=O)CCl)c1ccc(-c2cnco2)cc1` (stereo not drawn) [INSCoV-501M, 2-Chloro-N-(2-((1,1-Dioxidotetrahydro-2H-Thiopyran-4-yl)Amino)-2-Oxo-1-(Pyrazin-2-yl)Ethyl)-N-(4-(Oxazol-5-yl)Phenyl)Acetamide], the IC50 was 450 nM.

Take `Cc1ccc(S(=O)(=O)CNC(=O)C(c2cnccn2)N(C(=O)CCl)c2ccc(-c3cnco3)cc2)cc1` (stereo not drawn) [INSCoV-501O, 2-Chloro-N-(4-(Oxazol-5-yl)Phenyl)-N-(2-Oxo-1-(Pyrazin-2-yl)-2-((Tosylmethyl)Amino)Ethyl)Acetamide]: the half-maximal inhibitory concentration (IC50) stood at 1500 nM.

As to `O=C(NCCc1ccccc1)C(c1cnccn1)N(C(=O)CCl)c1ccc(-c2cnco2)cc1` (stereo not drawn) [INSCoV-501P, 2-Chloro-N-(4-(Oxazol-5-vl)Phenyl)-N-(2-Oxo-2-(Phenethylamino)-1-(Pyrazin-2-yl)Ethyl)Acetamide], the IC50 is 560 nM.

As for `CCS(=O)(=O)N1CCC(NC(=O)C(c2cnccn2)N(C(=O)CCl)c2ccc(-c3cnco3)cc2)CC1` (stereo not drawn) [INSCoV-501R(1), 2-Chloro-N-(2-((1-(Ethylsulfonyl)Piperidin-4-yl)Amino)-2-Oxo-1-(Pyrazin-2-yl)Ethyl)-N-(4-(Oxazol-5-yl)Phenyl)Acetamide], the IC50 was 570 nM.

For `O=C(NC1CCN(S(=O)(=O)C2CC2)CC1)C(c1cnccn1)N(C(=O)CCl)c1ccc(-c2cnco2)cc1` (stereo not drawn) [INSCoV-501R, 2-Chloro-N-(2-((1-(Cyclopropylsulfonyl)Piperidin-4-yl)Amino)-2-Oxo-1-(Pyrazin-2-yl)Ethyl)-N-(4-(Oxazol-5-yl)Phenyl)Acetamide], the IC50 came to 480 nM.

`O=C(NC1CCC(F)(F)CC1)C(c1cnccn1)N(C(=O)CCl)c1ccc(-c2cnco2)cc1` (stereo not drawn) [INSCoV-501S, 2-Chloro-N-(2-((4,4-Difluorocyclohexyl)Amino)-2-Oxo-1-(Pyrazin-2-yl)Ethyl)-N-(4-(Oxazol-5-yl)Phenyl)Acetamide]: the IC50 is 240 nM.

For the molecule `O=C(NC1CCCCC1)C(c1cccnc1)N(C(=O)CCl)c1ccc(-c2cnco2)cc1` (stereo not drawn) [INSCoV-501], the IC50 is 680 nM.

As for `Cc1ccc(CN(C(=O)CCl)C(C(=O)NC2CCCCC2)c2cccnc2)cc1` (stereo not drawn) [INSCoV-502], the IC50 came to 4820 nM.

In the case of `Cc1ccccc1CCN(C(=O)CCl)C(C(=O)NC1CCCCC1)c1cccnc1` (stereo not drawn) [INSCoV-503A], the IC50 is 2630 nM.

For the molecule `Cc1cccc(CCN(C(=O)CCl)C(C(=O)NC2CCCCC2)c2cccnc2)c1` (stereo not drawn) [INSCoV-503B], the IC50 stood at 1000 nM.

Take `Cc1ccc(CCN(C(=O)CCl)C(C(=O)NC2CCCCC2)c2cccnc2)cc1` (stereo not drawn) [INSCoV-503C]: the IC50 came to 1380 nM.

Consider `O=C(NC1CCCCC1)C(c1cccnc1)N(CCc1ccccc1Cl)C(=O)CCl` (stereo not drawn) [INSCoV-503D], for which the IC50 came to 2650 nM.

As to `O=C(NC1CCCCC1)C(c1cccnc1)N(CCc1cccc(Cl)c1)C(=O)CCl` (stereo not drawn) [INSCoV-503E], the IC50 was 660 nM.

Take `O=C(NC1CCCCC1)C(c1cccnc1)N(CCc1ccc(Cl)cc1)C(=O)CCl` (stereo not drawn) [INSCoV-503F]: the IC50 came to 940 nM.

Take `O=C(NC1CCCCC1)C(c1cccnc1)N(CCc1ccccc1F)C(=O)CCl` (stereo not drawn) [INSCoV-503G]: the IC50 came to 2300 nM.

Consider `O=C(NC1CCCCC1)C(c1cccnc1)N(CCc1ccccc1)C(=O)CCl` (stereo not drawn) [INSCoV-503], for which the IC50 was found to be 980 nM.

For the molecule `O=C(NC1CCCCC1)C(c1cccnc1)N(Cc1ccc(F)cc1)C(=O)CCl` (stereo not drawn) [INSCoV-504], the IC50 came to 16300 nM.

Turning to `COc1ccccc1CN(C(=O)CCl)C(C(=O)NC1CCCCC1)c1cccnc1` (stereo not drawn) [INSCoV-505], the IC50 is 8650 nM.

Turning to `O=C(NC1CCCCC1)C(c1cccnc1)N(C(=O)CCl)c1ccc(Br)cc1F` (stereo not drawn) [INSCoV-507], the IC50 is 2130 nM.

On to `O=C(NC1CCCCC1)C(c1cccnc1)N(CCc1c[nH]c2ccncc12)C(=O)CCl` (stereo not drawn) [INSCoV-516], for which the IC50 was 1180 nM.

Regarding `N#Cc1cc(OC(F)(F)F)ccc1N(C(=O)CCl)[C@@H](C(=O)NC1CCCCC1)c1cccnc1` [INSCoV-517(1)], the half-inhibitory concentration (IC50) was found to be 80 nM.

Take `N#Cc1cc(OC(F)(F)F)ccc1N(C(=O)CCl)[C@H](C(=O)NC1CCCCC1)c1cccnc1` [INSCoV-517(2)]: the IC50 came out at 1940 nM.

As to `N#Cc1cc(OC(F)(F)F)ccc1N(C(=O)CCl)C(C(=O)NC1CCC(F)(F)CC1)c1cnccn1` (stereo not drawn) [INSCoV-517B], the IC50 is 170 nM.

With `O=C(NC1CCCCC1)C(c1cccnc1)N(C(=O)CCl)c1ccc(N2CCCC2)cc1` (stereo not drawn) [INSCoV-523], the IC50 was found to be 980 nM.

Regarding `Cc1ccc(S(=O)(=O)C(C)NC(=O)C(c2cccnc2)N(C(=O)CCl)c2ccc(C(C)(C)C)cc2)cc1` (stereo not drawn) [INSCoV-531], the IC50 was found to be 12700 nM.

For `CC(C)(C)NC(=O)C(c1cccnc1)N(C(=O)CCl)c1ccc(C(C)(C)C)cc1` (stereo not drawn) [INSCoV-534, N-(Tert-Butyl)-2-(N-(4-(Tert-Butyl)Phenyl)-2-Chloroacetamido)-2-(Pyridin-3-yl)Acetamide], the IC50 was found to be 1280 nM.

Regarding `CC(C)(C)c1ccc(N(C(=O)CCl)C(C(=O)NC2CCCCC2)c2cncc(O)c2)cc1` (stereo not drawn) [INSCoV-535, N-(4-(Tert-Butyl)Phenyl)-2-Chloro-N-(2-(Cyclohexylamino)-1-(5-Hydroxypyridin-3-yl)-2-Oxoethyl)Acetamide], the IC50 is 1040 nM.

In the case of `CC(C)(C)c1ccc(N(C(=O)CCl)C(C(=O)NC2CCCCC2)c2cncnc2)cc1` (stereo not drawn) [INSCoV-536, N-(4-(Tert-Butyl)Phenyl)-2-Chloro-N-(2-(Cyclohexylamino)-2-Oxo-1-(Pyrimidin-5-yl)Ethyl)Acetamide], the IC50 turned out to be 620 nM.

Regarding `CC(C)(C)c1ccc(N(C(=O)CCl)C(C(=O)NC2CCCCC2)c2ccnnc2)cc1` (stereo not drawn) [INSCoV-537, N-(4-(Tert-Butyl)Phenyl)-2-Chloro-N-(2-(Cyclohexylamino)-2-Oxo-1-(Pyridazin-4-yl)Ethyl)Acetamide], the IC50 stood at 420 nM.

Regarding `O=C(NC1CCC(F)(F)CC1)C(c1ccnnc1)N(C(=O)CCl)c1ccc(-c2cnco2)cc1` (stereo not drawn) [INSCoV-537I, 2-Chloro-N-(2-((4,4-Difluorocyclohexyl)Amino)-2-Oxo-1-(Pyridazin-4-yl)Ethyl)-N-(4-(Oxazol-5-yl)Phenyl)Acetamide], the IC50 was found to be 270 nM.

As for `O=C(NC1CCC(F)(F)CC1)C(c1ccnnc1)N(C(=O)CCl)c1ccc(-c2ccno2)cc1` (stereo not drawn) [INSCoV-537K, 2-Chloro-N-(2-((4,4-Difluorocyclohexyl)Amino)-2-Oxo-1-(Pyridazin-4-yl)Ethyl)-N-(4-(Isoxazol-5-yl)Phenyl)Acetamide], the IC50 was 360 nM.

For the molecule `CC(C)(C)c1ccc(N(C(=O)CCl)C(C(=O)NC2CCCCC2)c2cnccn2)cc1` (stereo not drawn) [INSCoV-538, N-(4-(Tert-Butyl)Phenyl)-2-Chloro-N-(2-(Cyclohexylamino)-2-Oxo-1-(Pyrazin-2-yl)Ethyl)Acetamide], the IC50 came to 280 nM.

As to `CC(C)(C)c1ccc(N(C(=O)CCl)[C@@](C)(C(=O)NC2CCCCC2)c2cccnc2)cc1` [INSCoV-538A(1)], the IC50 is 230 nM.

In the case of `CC(C)(C)c1ccc(N(C(=O)CCl)[C@](C)(C(=O)NC2CCCCC2)c2cccnc2)cc1` [INSCoV-538A(2)], the IC50 was found to be 9600 nM.

In the case of `CC(C)(C)c1ccc(N(C(=O)CCl)C(C)(C(=O)NC2CCCCC2)c2cccnc2)cc1` (stereo not drawn) [INSCoV-538A], the IC50 turned out to be 900 nM.

The record behind these values is patent US20230174488A1 (priority 2020, published 2023).
